Assays:
Assay type in all cases: cell-based
[1] = test system: MKN45; experiment: Anti-proliferation assay (CellTiter-Glo 2.0), combination index, MKN45
In short: (§1)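 Cells were seeded at 500 cells/well in medium with 10% FBS and exposed to agents at 8 concentrations including 0 nM, for 3 days at 37° C under 5% CO2. Survival was read by CellTiter-Glo 2.0 luminescence, and combination index was determined at each combined concentration.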

[2] = test system: NCI-H358; experiment: Anti-proliferation assay (CellTiter-Glo 2.0), combination index, NCI-H358
In short: as §1

[3] = test system: MV-4-11; experiment: Anti-proliferation assay (CellTiter-Glo 2.0), combination index, MV-4-11
Method: (§2) Cell lines were obtained from ATCC or Health Science Research Resources Bank.
(§3) 384 well culture plate (781086, Greiner Bio-One International) was used for cell survival rate measurement assay. Each cell lines were collected by ordinary method, then suspended in indicated medium containing 10% fetal bovine serum in table 3. The number of cells seeded per well was set to 500 cells/20 μL. After incubation at 37° C. for 24 hours under 5% CO2, Compound 1 and additional compound having an antitumor effect or a vehicle (DMSO) was added to each well by using D300e Digital Dispenser (Tecan). The concentration of Compound 1 was set to 10 concentrations. The concentration of each anti-cancer reagents set to 8 concentrations including 0 nM. After adding the medicine to the cells, the cells were further incubated at 37° C. for 3 days under 5% CO2. Cell survival rates were calculated by adding 20 μL of CellTiter-Glo(registered trademark) 2. 0 (Promega) solution to each well, incubating the cells at room temperature for 10 minutes, and then measuring the chemiluminescence intensity of each well using a plate reader (ARVO).
(§4) A combination index (CI) value at each combined concentration of the medicines was determined.

[4] = test system: RMG-I; experiment: Anti-proliferation assay (CellTiter-Glo 2.0), combination index, RMG-I
Method: as §2, §3, §4

[5] = test system: RT4; experiment: Anti-proliferation assay (CellTiter-Glo 2.0), combination index, RT4
In short: as §1

[6] = test system: NCI-H23; experiment: Anti-proliferation assay (CellTiter-Glo 2.0), combination index, NCI-H23
Method: as §2
Each cell lines were collected by ordinary method, then suspended in indicated medium containing 10% fetal bovine serum in table 3. The number of cells seeded per well was set to 500 cells/20 μL. […] The concentration of each anti-cancer reagents set to 8 concentrations including 0 nM. After adding the medicine to the cells, the cells were further incubated at 37° C. for 3 days under 5% CO2. Cell survival rates were calculated by adding 20 μL of CellTiter-Glo(registered trademark) 2. 0 (Promega) solution to each well, incubating the cells at room temperature for 10 minutes, and then measuring the chemiluminescence intensity of each well using a plate reader (ARVO).
as §4

[7] = Compound 1 41.2 + combination drug 3330 nmol/L (1:81)
[8] = Compound 1 123 + combination drug 10000 nmol/L (1:81)
[9] = Compound 1:combination drug molar ratio 1:81
[10] = Compound 1 4.57 + combination drug 123 nmol/L (1:27)
[11] = Compound 1 13.7 + combination drug 370 nmol/L (1:27)
[12] = Compound 1 41.2 + combination drug 1110 nmol/L (1:27)
[13] = Compound 1 370 + combination drug 10000 nmol/L (1:27)
[14] = Compound 1:combination drug molar ratio 1:27
[15] = Compound 1 13.7 + combination drug 41.2 nmol/L (1:3)
[16] = Compound 1 41.2 + combination drug 123 nmol/L (1:3)
[17] = Compound 1 123 + combination drug 370 nmol/L (1:3)
[18] = Compound 1 370 + combination drug 1110 nmol/L (1:3)
[19] = Compound 1 1110 + combination drug 3330 nmol/L (1:3)
[20] = Compound 1:combination drug molar ratio 1:3
[21] = Compound 1 13.7 + combination drug 123 nmol/L (1:9)
[22] = Compound 1 41.2 + combination drug 370 nmol/L (1:9)
[23] = Compound 1 123 + combination drug 1110 nmol/L (1:9)
[24] = Compound 1:combination drug molar ratio 1:9
[25] = Compound 1 370 + combination drug 3330 nmol/L (1:9)
[26] = Compound 1 1110 + combination drug 10000 nmol/L (1:9)
[27] = Compound 1 4.57 + combination drug 370 nmol/L (1:81)
[28] = Compound 1 13.7 + combination drug 1110 nmol/L (1:81)
[29] = Compound 1 123 + combination drug 3330 nmol/L (1:27)
[30] = Compound 1 1.52 + combination drug 123 nmol/L (1:81)
[31] = Compound 1 41.2 + combination drug 41.2 nmol/L (1:1)
[32] = Compound 1 123 + combination drug 123 nmol/L (1:1)
[33] = Compound 1 370 + combination drug 370 nmol/L (1:1)
[34] = Compound 1 1110 + combination drug 1110 nmol/L (1:1)
[35] = Compound 1 3330 + combination drug 3330 nmol/L (1:1)
[36] = Compound 1 3330 + combination drug 10000 nmol/L (1:3)

## COC(=O)c1ccc2c(c1)NC(=O)/C2=C(\Nc1ccc(N(C)C(=O)CN2CCN(C)CC2)cc1)c1ccccc1 [Nintedanib]
[1]; [7]
  CI: 0.925
  Fa: 0.5044
[1]; [8]
  CI: 0.418
  Fa: 0.8817
[1]; [9]
  Description (combinatory effect by CI): Synergy (0.3-0.7)
[2]; [10]
  CI: 0.837
  Fa: 0.0649
[2]; [11]
  CI: 0.576
  Fa: 0.1639
[2]; [12]
  CI: 0.580
  Fa: 0.3485
[2]; [13]
  CI: 0.858
  Fa: 0.9756
[2]; [14]
  Description (combinatory effect by CI): Synergy (0.3-0.7)
[3]; [15]
  CI: 0.479
  Fa: 0.7111
[3]; [16]
  CI: 0.370
  Fa: 0.9278
[3]; [17]
  CI: 0.706
  Fa: 0.9603
[3]; [18]
  CI: 0.617
  Fa: 0.9933
[3]; [19]
  CI: 0.770
  Fa: 0.9982
[3]; [20]
  Description (combinatory effect by CI): Synergy (0.3-0.7)
[4]; [21]
  CI: 0.772
  Fa: 0.2678
[4]; [22]
  CI: 0.477
  Fa: 0.4576
[4]; [23]
  CI: 0.683
  Fa: 0.6821
[4]; [24]
  Description (combinatory effect by CI): Synergy (0.3-0.7)

## COc1cc2c(Nc3ccc(Br)cc3F)ncnc2cc1OCC1CCN(C)CC1 [Vandetanib]
[2]; [22]
  CI: 0.322
  Fa: 0.2982
[2]; [23]
  CI: 0.300
  Fa: 0.5211
[2]; [25]
  CI: 0.589
  Fa: 0.6208
[2]; [26]
  CI: 0.733
  Fa: 0.8142
[2]; [24]
  Description (combinatory effect by CI): Synergy (0.3-0.7)
[3]; [27]
  CI: 0.912
  Fa: 0.5454
[3]; [28]
  CI: 0.557
  Fa: 0.8322
[3]; [7]
  CI: 0.503
  Fa: 0.9448
[3]; [8]
  CI: 0.294
  Fa: 0.9916
[4]; [22]
  CI: 0.428
  Fa: 0.4951
[4]; [23]
  CI: 0.938
  Fa: 0.5602
[4]; [24]
  Description (combinatory effect by CI): Synergy (0.3-0.7)
[5]; [11]
  CI: 0.486
  Fa: 0.3118
[5]; [12]
  CI: 0.444
  Fa: 0.5143
[5]; [29]
  CI: 0.570
  Fa: 0.6645
[5]; [13]
  CI: 0.541
  Fa: 0.8261
[5]; [14]
  Description (combinatory effect by CI): Synergy (0.3-0.7)

## CC[C@H](Nc1ncnc2[nH]cnc12)c1nc2cccc(F)c2c(=O)n1-c1ccccc1 [Idelalisib]
[3]; [30]
  CI: 0.301
  Fa: 0.2988
[3]; [27]
  CI: 0.600
  Fa: 0.3705
[3]; [28]
  CI: 0.330
  Fa: 0.7136
[3]; [7]
  CI: 0.262
  Fa: 0.8924
[3]; [8]
  CI: 0.273
  Fa: 0.9566
[4]; [30]
  CI: 0.778
  Fa: 0.0902
[4]; [28]
  CI: 0.511
  Fa: 0.2747
[4]; [7]
  CI: 0.333
  Fa: 0.5012
[4]; [8]
  CI: 0.570
  Fa: 0.6059
[4]; [9]
  Description (combinatory effect by CI): Synergy (0.3-0.7)

## CN(C)C/C=C/C(=O)Nc1cc2c(Nc3ccc(F)c(Cl)c3)ncnc2cc1O[C@H]1CCOC1 [Afatinib]
[2]; [31]
  CI: 0.143
  Fa: 0.4605
[2]; [32]
  CI: 0.264
  Fa: 0.5395
[2]; [33]
  CI: 0.426
  Fa: 0.6382
[2]; [34]
  CI: 0.686
  Fa: 0.7270
[2]; [35]
  CI: 0.526
  Fa: 0.8696
[3]; [11]
  Fa: 0.6791
[3]; [12]
  Fa: 0.9244
[5]; [8]
  CI: 0.471
  Fa: 0.9986
[5]; [9]
  Description (combinatory effect by CI): Synergy (0.3-0.7)
[6]; [17]
  CI: 0.776
  Fa: 0.1325
[6]; [18]
  CI: 0.397
  Fa: 0.3961
[6]; [19]
  CI: 0.400
  Fa: 0.8058
[6]; [36]
  CI: 0.471
  Fa: 0.9563
[6]; [20]
  Description (combinatory effect by CI): Synergy (0.3-0.7)

Reference: patent publication US20230146795A1, “ENHANCEMENT OF ANTI-TUMOR ACTIVITY OF SHP2 INHIBITOR PYRIMIDINONE IN COMBINATION WITH NOVEL CANCER MEDICINES IN CANCERS” (TAIHO PHARMACEUTICAL CO., LTD., priority 2020, published 2023)
